Measured values taken from US20090181963A1, “3H-[1,2,3]TRIAZOLO[4,5-D]PYRIMIDINE COMPOUNDS, THEIR USE AS mTOR KINASE AND PI3 KINASE INHIBITORS, AND THEIR [sequence]” (Wyeth, priority 2008, published 2009).

Tests used:
[1] = target: PI3 Kinase α (Homo sapiens, UniProt P42336); assay: Fluorescence polarization assay for PI3K (PI3 Kinase α); type: biochemical; details: diC8-PI(4,5)P2 substrate, 25 μM ATP, one hour at 25° C.
[2] = target: PI3 Kinase γ (Homo sapiens, UniProt P48736); assay: Fluorescence polarization assay for PI3K (PI3 Kinase γ); type: biochemical; details: diC8-PI(4,5)P2 substrate, 25 μM ATP, one hour at 25° C.
Chain of PI3 Kinase γ (P48736 whole entry): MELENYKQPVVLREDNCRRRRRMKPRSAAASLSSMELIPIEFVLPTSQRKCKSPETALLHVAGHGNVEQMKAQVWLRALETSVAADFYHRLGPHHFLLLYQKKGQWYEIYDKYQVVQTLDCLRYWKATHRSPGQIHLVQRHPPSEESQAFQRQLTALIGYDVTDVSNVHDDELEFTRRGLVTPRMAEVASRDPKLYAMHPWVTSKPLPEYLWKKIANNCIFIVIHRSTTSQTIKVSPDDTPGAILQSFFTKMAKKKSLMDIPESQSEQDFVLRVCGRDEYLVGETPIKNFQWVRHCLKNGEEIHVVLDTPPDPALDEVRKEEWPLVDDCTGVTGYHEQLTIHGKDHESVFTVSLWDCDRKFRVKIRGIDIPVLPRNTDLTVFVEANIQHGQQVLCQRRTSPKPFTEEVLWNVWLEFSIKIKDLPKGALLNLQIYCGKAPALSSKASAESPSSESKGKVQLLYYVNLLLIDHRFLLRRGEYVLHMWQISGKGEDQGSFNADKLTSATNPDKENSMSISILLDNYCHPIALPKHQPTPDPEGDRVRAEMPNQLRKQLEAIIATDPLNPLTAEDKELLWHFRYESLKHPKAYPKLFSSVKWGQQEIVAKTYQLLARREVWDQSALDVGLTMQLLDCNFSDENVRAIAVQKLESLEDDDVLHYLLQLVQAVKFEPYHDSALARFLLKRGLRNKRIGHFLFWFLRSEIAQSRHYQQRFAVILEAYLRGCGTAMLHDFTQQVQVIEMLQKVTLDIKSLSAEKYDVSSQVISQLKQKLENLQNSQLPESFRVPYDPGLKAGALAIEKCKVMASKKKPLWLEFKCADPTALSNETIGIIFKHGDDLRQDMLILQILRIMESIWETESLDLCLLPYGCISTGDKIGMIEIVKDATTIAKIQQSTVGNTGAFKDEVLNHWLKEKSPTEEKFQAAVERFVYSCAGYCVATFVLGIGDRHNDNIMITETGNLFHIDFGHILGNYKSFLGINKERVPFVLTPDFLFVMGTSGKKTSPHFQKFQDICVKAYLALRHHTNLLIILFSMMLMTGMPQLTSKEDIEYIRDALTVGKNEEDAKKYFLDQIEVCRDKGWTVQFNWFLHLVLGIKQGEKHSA

Chain of PI3 Kinase α (P42336 whole entry): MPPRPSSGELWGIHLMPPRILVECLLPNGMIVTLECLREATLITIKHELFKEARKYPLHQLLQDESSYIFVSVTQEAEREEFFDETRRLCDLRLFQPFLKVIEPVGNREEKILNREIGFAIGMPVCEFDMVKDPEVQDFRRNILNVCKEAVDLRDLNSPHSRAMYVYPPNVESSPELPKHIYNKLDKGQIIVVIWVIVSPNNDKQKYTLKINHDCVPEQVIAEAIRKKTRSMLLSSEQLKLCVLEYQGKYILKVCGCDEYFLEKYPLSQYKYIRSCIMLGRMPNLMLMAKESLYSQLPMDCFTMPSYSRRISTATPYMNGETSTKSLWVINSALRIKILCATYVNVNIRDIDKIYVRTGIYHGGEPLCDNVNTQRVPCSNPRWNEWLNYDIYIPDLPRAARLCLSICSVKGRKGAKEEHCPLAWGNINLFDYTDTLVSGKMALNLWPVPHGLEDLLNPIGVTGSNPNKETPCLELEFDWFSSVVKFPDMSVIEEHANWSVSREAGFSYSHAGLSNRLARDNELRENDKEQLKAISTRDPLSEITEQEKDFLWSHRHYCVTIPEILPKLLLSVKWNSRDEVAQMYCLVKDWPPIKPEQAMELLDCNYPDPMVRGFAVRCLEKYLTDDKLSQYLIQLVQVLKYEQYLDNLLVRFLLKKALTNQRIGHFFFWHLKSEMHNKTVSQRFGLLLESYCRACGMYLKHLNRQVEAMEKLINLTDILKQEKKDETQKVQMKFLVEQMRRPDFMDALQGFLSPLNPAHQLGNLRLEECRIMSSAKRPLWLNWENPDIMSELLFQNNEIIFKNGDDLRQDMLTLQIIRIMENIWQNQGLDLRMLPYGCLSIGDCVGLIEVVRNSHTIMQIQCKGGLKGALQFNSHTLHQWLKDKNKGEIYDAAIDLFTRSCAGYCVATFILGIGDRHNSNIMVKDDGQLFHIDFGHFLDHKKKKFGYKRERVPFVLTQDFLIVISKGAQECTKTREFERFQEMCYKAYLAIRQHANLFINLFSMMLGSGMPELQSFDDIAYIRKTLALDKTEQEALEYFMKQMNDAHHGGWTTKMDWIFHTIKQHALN
Chain of PI3 Kinase α (P27986 whole entry partner): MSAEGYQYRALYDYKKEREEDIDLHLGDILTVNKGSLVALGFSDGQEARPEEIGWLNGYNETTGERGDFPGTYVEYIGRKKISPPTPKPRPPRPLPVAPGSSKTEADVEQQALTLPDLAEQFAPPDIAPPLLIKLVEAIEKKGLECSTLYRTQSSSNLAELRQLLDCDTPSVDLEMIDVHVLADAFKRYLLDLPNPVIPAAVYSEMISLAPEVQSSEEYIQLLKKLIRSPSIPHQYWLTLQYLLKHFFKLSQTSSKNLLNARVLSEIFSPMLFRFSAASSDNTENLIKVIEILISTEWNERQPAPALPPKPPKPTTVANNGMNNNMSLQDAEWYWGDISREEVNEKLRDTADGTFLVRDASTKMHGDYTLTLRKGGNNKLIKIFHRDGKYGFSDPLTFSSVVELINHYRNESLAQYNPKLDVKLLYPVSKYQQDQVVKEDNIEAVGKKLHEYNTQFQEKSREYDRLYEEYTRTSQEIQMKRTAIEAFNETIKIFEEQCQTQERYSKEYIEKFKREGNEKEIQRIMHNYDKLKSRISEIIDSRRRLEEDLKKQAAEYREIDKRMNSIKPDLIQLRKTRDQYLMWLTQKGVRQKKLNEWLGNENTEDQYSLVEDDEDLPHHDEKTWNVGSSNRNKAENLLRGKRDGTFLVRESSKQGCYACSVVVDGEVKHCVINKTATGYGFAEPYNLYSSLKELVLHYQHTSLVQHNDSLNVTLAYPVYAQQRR

SMILES	IC50 [1]	IC50 [2]
CCn1nnc2c(N3CCOCC3)nc(-c3ccc(NC(=O)Nc4ccc(C(=O)NCCO)cc4)cc3)nc21 [Example 46, 4-({[4-(3-ethyl-7-morpholin-4-yl-3H-[1,2,3]triazolo[4,5-d]pyrimidin-5-yl)phenyl]carbamoyl}amino)-N-(2-hydroxyethyl)benzamide]	2.8 nM	14.5 nM
COC(Cn1nnc2c(N3CCOCC3)nc(-c3ccc(N)cc3)nc21)OC [Example 178, 4-[3-(2,2-dimethoxyethyl)-7-morpholin-4-yl-3H-[1,2,3]triazolo[4,5-d]pyrimidin-5-yl]aniline]	1340 nM	> 10000 nM
O=C(NCC(O)c1ccccc1)c1ccc(Cn2nnc3c(N4CCOCC4)nc(-c4cccc(O)c4)nc32)cc1 (stereo not shown) [Example 226, N-(2-hydroxy-2-phenylethyl)-4-{[5-(3-hydroxyphenyl)-7-morpholin-4-yl-3H-[1,2,3]triazolo[4,5-d]pyrimidin-3-yl]methyl}benzamide]	126 nM	958 nM
Oc1cncc(-c2nc(N3CCOCC3)c3nnn(C4CCN(Cc5ccc(F)cc5F)CC4)c3n2)c1 [Example 23, 5-{3-[1-(2,4-difluorobenzyl)piperidin-4-yl]-7-morpholin-4-yl-3H-[1,2,3]triazolo[4,5-d]pyrimidin-5-yl}pyridin-3-ol]	68 nM	44 nM
Cn1nnc2c(N3CCOCC3)nc(-c3ccc(NC(=O)Nc4cccs4)cc3)nc21 [Example 200, 1-[4-(3-methyl-7-morpholin-4-yl-3H-[1,2,3]triazolo[4,5-d]pyrimidin-5-yl)phenyl]-3-(2-thienyl)urea]	6.5 nM	22 nM
Oc1cccc(-c2nc(N3CCOCC3)c3nnn(C4CCN(Cc5ccccc5)CC4)c3n2)c1 [Example 1, 3-[3-(1-benzylpiperidin-4-yl)-7-morpholin-4-yl-3H-[1,2,3]triazolo[4,5-d]pyrimidin-5-yl]phenol]	121 nM	667 nM
CN(C)CCNC(=O)Nc1ccc(-c2nc(N3CCOCC3)c3nnn(C4CCNCC4)c3n2)cc1 [Example 152, 1-(2-(dimethylamino)ethyl)-3-(4-(7-morpholino-3-(piperidin-4-yl)-3H-[1,2,3]triazolo[4,5-d]pyrimidin-5-yl)phenyl)urea]	104 nM	392 nM
CC(C)(C)OC(=O)N1CCC(n2nnc3c(N4CCOCC4)nc(-c4ccc(NC(=O)Nc5cccnc5)cc4)nc32)CC1 [Example 150, tert-butyl 4-(7-morpholin-4-yl-5-{4-[(pyridin-3-ylcarbamoyl)amino]phenyl}-3H-[1,2,3]triazolo[4,5-d]pyrimidin-3-yl)piperidine-1-carboxylate]	21.5 nM	223 nM
CCn1nnc2c(N3CCOCC3)nc(-c3ccc(NC(=O)Nc4ccc(C(=O)N5CCN[C@H](C)C5)cc4)cc3)nc21 [Example 54, 1-[4-(3-ethyl-7-morpholin-4-yl-3H-[1,2,3]triazolo[4,5-d]pyrimidin-5-yl)phenyl]-3-(4-{[(3R)-3-methylpiperazin-1-yl]carbonyl}phenyl)urea]	< 1.8 nM	7 nM
NCCCCn1nnc2c(N3CCOCC3)nc(-c3cccc(O)c3)nc21 [Example 204, 3-[3-(4-Aminobutyl)-7-morpholin-4-yl-3H-[1,2,3]triazolo[4,5-d]pyrimidin-5-yl]phenol]	132 nM	108 nM
COC(Cn1nnc2c(N3CCOCC3)nc(-c3ccc(NC(=O)Nc4ccc(C(N)=O)cc4)cc3)nc21)OC [Example 182, 4-[({4-[3-(2,2-dimethoxyethyl)-7-morpholin-4-yl-3H-[1,2,3]triazolo[4,5-d]pyrimidin-5-yl]phenyl}carbamoyl)amino]benzamide]	4 nM	27 nM
CNC(=O)c1cccc(-n2nnc3c(N4CCOCC4)nc(-c4cccc(O)c4)nc32)c1 [Example 121, 3-[5-(3-hydroxyphenyl)-7-morpholin-4-yl-3H-[1,2,3]triazolo[4,5-d]pyrimidin-3-yl]-N-methylbenzamide]	36 nM	551 nM
O=C(NCc1ccco1)c1ccc(Cn2nnc3c(N4CCOCC4)nc(-c4cccc(O)c4)nc32)cc1 [Example 230, N-(2-furylmethyl)-4-{[5-(3-hydroxyphenyl)-7-morpholin-4-yl-3H-[1,2,3]triazolo[4,5-d]pyrimidin-3-yl]methyl}benzamide]	118 nM	938 nM
CC(C)n1nnc2c(N3CCOCC3)nc(-c3ccc(NC(=O)Nc4ccc(C(=O)N5CCN(C)CC5)cc4)cc3)nc21 [Example 257, 1-{4-[3-(1-methylethyl)-7-morpholin-4-yl-3H-[1,2,3]triazolo[4,5-d]pyrimidin-5-yl]phenyl}-3-{4-[(4-methylpiperazin-1-yl)carbonyl]phenyl}urea]		10 nM
CCn1nnc2c(N3CCOCC3)nc(-c3ccc(NC(=O)Nc4ccc(NC(=O)NCCOC)cc4)cc3)nc21 [Example 276, 1-[4-(3-ethyl-7-morpholin-4-yl-3H-[1,2,3]triazolo[4,5-d]pyrimidin-5-yl)phenyl]-3-(4-{[(2-methoxyethyl)carbamoyl]amino}phenyl)urea]		4.45 nM
CCn1nnc2c(N3CCOCC3)nc(-c3ccc(NC(=O)Nc4ccc(NCc5ccc(OC)nc5)cc4)cc3)nc21 [Example 255, 1-[4-(3-ethyl-7-morpholin-4-yl-3H-[1,2,3]triazolo[4,5-d]pyrimidin-5-yl)phenyl]-3-(4-{[(6-methoxypyridin-3-yl)methyl]amino}phenyl)urea]		5 nM
CCn1nnc2c(N3CCOC[C@@H]3C)nc(-c3ccc(NC(=O)Nc4ccc(C(=O)N5CCC(N(C)C)CC5)cc4)cc3)nc21 [Example 281, (S)-1-(4-(4-(dimethylamino)piperidine-1-carbonyl)phenyl)-3-(4-(3-ethyl-7-(3-methylmorpholino)-3H-[1,2,3]triazolo[4,5-d]pyrimidin-5-yl)phenyl)urea]		2.8 nM
CCn1nnc2c(N3CCOC[C@@H]3C)nc(-c3ccc(NC(=O)Nc4ccc(C(=O)NCCN5CCCC5)cc4)cc3)nc21 [Example 283, 4-{[(4-{3-ethyl-7-[(3S)-3-methylmorpholin-4-yl]-3H-[1,2,3]triazolo[4,5-d]pyrimidin-5-yl}phenyl)carbamoyl]amino}-N-(2-pyrrolidin-1-ylethyl)benzamide]		3.35 nM
CC(C)n1nnc2c(N3CCOCC3)nc(-c3ccc(NC(=O)Nc4ccc(N5CCN(C)CC5)cc4)cc3)nc21 [Example 277, 1-{4-[3-(1-methylethyl)-7-morpholin-4-yl-3H-[1,2,3]triazolo[4,5-d]pyrimidin-5-yl]phenyl}-3-[4-(4-methylpiperazin-1-yl)phenyl]urea]		5.5 nM
CCn1nnc2c(N3CCOCC3)nc(-c3ccc(NC(=O)Nc4ccc(N5CCN(C)CC5)cc4)cc3)nc21 [Example 259, 1-[4-(3-ethyl-7-morpholin-4-yl-3H-[1,2,3]triazolo[4,5-d]pyrimidin-5-yl)phenyl]-3-[4-(4-methylpiperazin-1-yl)phenyl]urea]		4 nM
CCn1nnc2c(N3CCOCC3)nc(-c3ccc(NC(=O)Nc4ccc(NCc5ccc(F)nc5)cc4)cc3)nc21 [Example 254, 1-[4-(3-ethyl-7-morpholin-4-yl-3H-[1,2,3]triazolo[4,5-d]pyrimidin-5-yl)phenyl]-3-(4-{[(6-fluoropyridin-3-yl)methyl]amino}phenyl)urea]		7.5 nM
CCn1nnc2c(N3CCOCC3)nc(-c3ccc(NC(=O)Nc4ccc(C(=O)N5CCN(C)CC5)nc4)cc3)nc21 [Example 289, 1-[4-(3-ethyl-7-morpholin-4-yl-3H-[1,2,3]triazolo[4,5-d]pyrimidin-5-yl)phenyl]-3-{6-[(4-methylpiperazin-1-yl)carbonyl]pyridin-3-yl}urea]		6 nM
CC(C)n1nnc2c(N3CCOCC3)nc(-c3ccc(NC(=O)Nc4ccc([N+](=O)[O-])cc4)cc3)nc21 [Example 278, 1-{4-[3-(1-methylethyl)-7-morpholin-4-yl-3H-[1,2,3]triazolo[4,5-d]pyrimidin-5-yl]phenyl}-3-(4-nitrophenyl)urea]		21.5 nM
CCn1nnc2c(N3CCOC[C@@H]3C)nc(-c3ccc(NC(=O)Nc4ccc(C(=O)NCCN5CCCCC5)cc4)cc3)nc21 [Example 284, 4-{[(4-{3-ethyl-7-[(3S)-3-methylmorpholin-4-yl]-3H-[1,2,3]triazolo[4,5-d]pyrimidin-5-yl}phenyl)carbamoyl]amino}-N-(2-piperidin-1-ylethyl)benzamide]		4.35 nM
CCn1nnc2c(N3CCOCC3)nc(-c3ccc(NC(=O)Nc4ccc([N+](=O)[O-])cc4)cc3)nc21 [Example 247, 1-[4-(3-ethyl-7-morpholin-4-yl-3H-[1,2,3]triazolo[4,5-d]pyrimidin-5-yl)phenyl]-3-(4-nitrophenyl)urea]		15 nM
CCn1nnc2c(N3CCOCC3)nc(-c3ccc(NC(=O)Nc4ccc(C(=O)OC)nc4)cc3)nc21 [Example 287, Methyl 5-({[4-(3-ethyl-7-morpholin-4-yl-3H-[1,2,3]triazolo[4,5-d]pyrimidin-5-yl)phenyl]carbamoyl}amino)pyridine-2-carboxylate]		91.5 nM
CCn1nnc2c(N3CCOCC3)nc(-c3ccc(NC(=O)Nc4ccc(NCc5ccncc5)cc4)cc3)nc21 [Example 252, 1-[4-(3-ethyl-7-morpholin-4-yl-3H-[1,2,3]triazolo[4,5-d]pyrimidin-5-yl)phenyl]-3-{4-[(pyridin-4-ylmethyl)amino]phenyl}urea]		3.83 nM
CC(C)n1nnc2c(N3CCOCC3)nc(-c3ccc(NC(=O)Nc4ccc(NS(C)(=O)=O)cc4)cc3)nc21 [Example 279, N-[4-({[4-(3-isopropyl-7-morpholin-4-yl-3H-[1,2,3]triazolo[4,5-d]pyrimidin-5-yl)phenyl]carbamoyl}amino)phenyl]methanesulfonamide]		12 nM
CC(C)n1nnc2c(N3CCOCC3)nc(-c3ccc(NC(=O)Nc4ccc(N)cc4)cc3)nc21 [Example 280, 1-(4-aminophenyl)-3-[4-(3-isopropyl-7-morpholin-4-yl-3H-[1,2,3]triazolo[4,5-d]pyrimidin-5-yl)phenyl]urea]		7.5 nM
CCn1nnc2c(N3CCOCC3)nc(-c3ccc(NC(=O)Nc4ccc(NC(=O)N5CCOCC5)cc4)cc3)nc21 [Example 263, N-[4-({[4-(3-ethyl-7-morpholin-4-yl-3H-[1,2,3]triazolo[4,5-d]pyrimidin-5-yl)phenyl]carbamoyl}amino)phenyl]morpholine-4-carboxamide]		3.1 nM
